Test systems include RXF 631; DMS-273; HOP-18; M19-MEL; SNB-78; DLD-1; LXFL 529; XF498; DMS-114.
Common to all, as to assay: NCI-60 cell line screen, 48 h

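Cultured in 96-well plates, cells were exposed to test compound for 48 hours across five concentrations. GI50 is the concentration that inhibits growth by half.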 Calls of active or inactive are those of the source. Cut-off read from the data, not from the text of the source: active = GI50 up to about 1.1 µM and inactive = higher.

In the case of `O=[N+]([O-])c1cccc(/C=N\NS(=O)(=O)c2ccc(Cl)cc2)c1O`, the GI50 is > 100 µM (inactive) with RXF 631; > 100 µM (inactive) with DMS-273; 37.1 µM (inactive) with HOP-18; > 100 µM (inactive) with M19-MEL; > 100 µM (inactive) in the assay with SNB-78; 55.5 µM (inactive) in the assay on DLD-1. Also, in the assay on LXFL 529, the GI50 is 83.6 µM (inactive).

As to `NNC(=O)CCC(=O)Nc1ccc(Cl)cc1Cl`, the GI50 in the assay on RXF 631 is > 100 µM (inactive); with XF498, > 100 µM (inactive); in the assay with DMS-273, 31.8 µM (inactive); with M19-MEL, > 100 µM (inactive); in the assay on SNB-78, > 100 µM (inactive); with DLD-1, > 100 µM (inactive). Also, the GI50 in the assay with LXFL 529 was 29.7 µM (inactive); with DMS-114, > 100 µM (inactive).

Regarding `O=C(CN1CCN(c2cccc(Cl)c2)CC1)N1CCc2c([nH]c3ccccc23)C1c1cccnc1` (centres undefined), the GI50 was 7.31 µM (inactive) in the assay on RXF 631; 12.2 µM (inactive) with XF498; 6.68 µM (inactive) in the assay on DMS-273; 33.2 µM (inactive) in the assay on HOP-18; 7.76 µM (inactive) in the assay on M19-MEL; 18.3 µM (inactive) with SNB-78. The values for the GI50 in the assay with DLD-1 and with DMS-114 were 7.31 µM (inactive) and 4.25 µM (inactive), respectively.

For the molecule `CC(=O)NC(CCCCN(Cc1ccccc1)C(=O)N(CCCl)N=O)C(=O)NCc1ccccc1` (centres undefined), the GI50 in the assay with XF498 was > 34.4 µM (inactive); in the assay on DMS-273, > 35.8 µM (inactive); in the assay with HOP-18, 25.9 µM (inactive); in the assay on M19-MEL, > 67.3 µM (inactive); in the assay with SNB-78, > 100 µM (inactive); in the assay on DLD-1 it was > 47.9 µM (inactive). The GI50 with LXFL 529 and with DMS-114 was > 100 µM (inactive) in each case.

On to `Cc1c(CNc2ccc(Cl)c(C(=O)NC(CC(=O)O)C(=O)O)c2)ccc2nc(N)nc(N)c12` (centres undefined), for which the GI50 is > 100 µM (inactive) in the assay on XF498; 0.0617 µM (active) in the assay with DMS-273; > 54.8 µM (inactive) with HOP-18; 13.7 µM (inactive) with M19-MEL; > 100 µM (inactive) in the assay with SNB-78; 0.0631 µM (active) with DLD-1. In addition, the GI50 in the assay with DMS-114 was 0.038 µM (active).

Regarding `CC(C)S(=O)(=O)ON1C(=O)c2ccc(N(C)C)cc2C1=O`, the GI50 in the assay on RXF 631 was 13.2 µM (inactive); in the assay with XF498 it was 17.7 µM (inactive); in the assay with DMS-273, 19.8 µM (inactive); in the assay with HOP-18 it was 13.5 µM (inactive); in the assay with SNB-78, 31.3 µM (inactive); with LXFL 529, 9.91 µM (inactive).

As for `COC(=O)N/N=C/c1oc(-c2cccc([N+](=O)[O-])c2)c(-c2cccc([N+](=O)[O-])c2)c1[N+](=O)[O-]`, the GI50 in the assay with XF498, in the assay with DMS-273, in the assay on HOP-18, in the assay on M19-MEL, with DLD-1 and with LXFL 529 was > 100 µM (inactive) each time.

Consider `C[P+](C)(C)c1ccccc1`, for which the GI50 with RXF 631, with XF498, with DMS-273, with HOP-18, in the assay on M19-MEL and in the assay on DLD-1 was > 100 µM (inactive) throughout. The GI50 in the assay on LXFL 529 and in the assay with DMS-114 was > 100 µM (inactive) each time.

`O=C(Nc1cc(Cl)ccc1Cl)c1cc2cccc(Br)c2oc1=O`: the GI50 is 21.9 µM (inactive) in the assay on XF498; > 100 µM (inactive) in the assay with DMS-273; > 100 µM (inactive) in the assay with HOP-18; > 100 µM (inactive) in the assay on M19-MEL; > 100 µM (inactive) with DLD-1; > 100 µM (inactive) in the assay with DMS-114.

Regarding `O=C1CCC(=O)c2cc(Br)ccc2N1`, the GI50 in the assay with RXF 631 is > 100 µM (inactive); in the assay on XF498, > 100 µM (inactive); with DMS-273, > 100 µM (inactive); in the assay on HOP-18, > 100 µM (inactive); in the assay on M19-MEL, > 70.5 µM (inactive); in the assay on SNB-78, > 100 µM (inactive). In addition, the figures for the GI50 in the assay with DLD-1, with LXFL 529 and in the assay with DMS-114 were > 100 µM (inactive), > 100 µM (inactive) and > 90.6 µM (inactive), respectively.

`CC(=O)Nc1ccc(/C=C/C(=O)c2sc(-c3cccnc3)nc2C)cc1`: the GI50 in the assay on DMS-273, in the assay with HOP-18, with M19-MEL, in the assay with SNB-78, in the assay on DLD-1 and in the assay with DMS-114 was > 100 µM (inactive) each time.

With `CCCCCCCCCOC(=S)NC`, the GI50 with RXF 631 was 21 µM (inactive); with XF498 it was 18.2 µM (inactive); with DMS-273, 18.3 µM (inactive); in the assay with HOP-18 it was 19.6 µM (inactive); with M19-MEL, 23.4 µM (inactive); with DLD-1, 16.6 µM (inactive). Also, the GI50 with LXFL 529 was 17.8 µM (inactive).

In the case of `C/C(CC(=O)Nc1cccc([N+](=O)[O-])c1)=N\NC(=O)C[n+]1ccccc1`, the GI50 in the assay on XF498, with M19-MEL, in the assay with SNB-78, with DLD-1, with LXFL 529 and with DMS-114 was > 100 µM (inactive) throughout.

With `N=C(N)NCCCC(Nc1c2ccccc2[n+]([O-])c2ccccc12)C(=O)O` (centres undefined), the GI50 in the assay with RXF 631 was > 100 µM (inactive); in the assay with DMS-273 it was 40.5 µM (inactive); in the assay with HOP-18, 33.3 µM (inactive); with M19-MEL, 44.7 µM (inactive); in the assay with DLD-1, 28.4 µM (inactive); with LXFL 529, 22.5 µM (inactive). Besides, the GI50 in the assay with DMS-114 was 23.6 µM (inactive).

On to `CCOC(=O)C(/C(=N\NC(=O)OC)C(=O)Nc1cc(OC)ccc1OC)c1cnc2ccccc2n1` (centres undefined), for which the GI50 in the assay with XF498 was > 100 µM (inactive); with HOP-18, 85.9 µM (inactive); in the assay on M19-MEL, > 100 µM (inactive); in the assay on SNB-78 it was > 100 µM (inactive); with DLD-1, > 100 µM (inactive); in the assay on LXFL 529 it was > 100 µM (inactive). In addition, the GI50 in the assay with DMS-114 was > 100 µM (inactive).

Take `CCN(CC)CC(=O)NC1c2ccccc2Oc2ccccc21`: the GI50 in the assay with XF498, with DMS-273, in the assay on M19-MEL, in the assay on SNB-78, in the assay with DLD-1 and in the assay with LXFL 529 was > 100 µM (inactive) each time. Besides, the GI50 with DMS-114 is > 100 µM (inactive).

As for `O=C(c1ccccc1)[C@H]1Nc2cnccc2C2c3ccccc3CC21` (some centres undefined), the GI50 was 19.9 µM (inactive) in the assay with RXF 631; 23.7 µM (inactive) with XF498; 26.6 µM (inactive) in the assay on DMS-273; 5.6 µM (inactive) with HOP-18; 8.3 µM (inactive) in the assay with M19-MEL; 15.5 µM (inactive) with SNB-78. Also, the values for the GI50 in the assay on DLD-1, with LXFL 529 and in the assay with DMS-114 were 7.01 µM (inactive), 4.38 µM (inactive) and 10 µM (inactive), respectively.

As to `CC1CCC2c3c([nH]c4ccccc34)C3C(=O)N(c4ccccc4)C(=O)C3C2C1` (centres undefined), the GI50 in the assay on RXF 631 was 89.1 µM (inactive); in the assay with XF498, 1.82 µM (inactive); in the assay with DMS-273, 40.6 µM (inactive); in the assay on HOP-18 it was 18.9 µM (inactive); with M19-MEL, > 250 µM (inactive); in the assay with SNB-78, 10.6 µM (inactive). Further, the GI50 is > 250 µM (inactive) in the assay with DLD-1, > 250 µM (inactive) with LXFL 529 and 45.5 µM (inactive) with DMS-114.

With `CCCCNC(=S)OCCC(C)CCCC(C)C` (centres undefined), the GI50 with XF498, in the assay with DMS-273, with HOP-18, in the assay on M19-MEL, in the assay on SNB-78 and with DLD-1 was > 100 µM (inactive) in each case. The GI50 with LXFL 529 and in the assay with DMS-114 was > 100 µM (inactive) each time.

`COc1ccc(-n2/c(=N/C(=S)N(C)C)ss/c2=N\C(=S)N(C)C)cc1`: the GI50 with DMS-273 is 10.7 µM (inactive); in the assay with M19-MEL, 7.43 µM (inactive); with SNB-78 it was 39.4 µM (inactive); in the assay on DMS-114, 7.36 µM (inactive).

Turning to `N#CCCN(c1ccc(/C=C2\N=C(Cc3ccccc3)OC2=O)cc1)S(=O)(=O)c1ccccc1`, the GI50 in the assay with XF498, in the assay on DMS-273, with SNB-78, in the assay on DLD-1, with LXFL 529 and in the assay with DMS-114 was > 100 µM (inactive) throughout.

For the molecule `CN1CCN(c2ccc3[nH]c(-c4ccc5[nH]c(-c6ccc(O)cc6)nc5c4)nc3c2)CC1`, the GI50 is 34.4 µM (inactive) in the assay with XF498; 21.6 µM (inactive) in the assay with DMS-273; 209 µM (inactive) in the assay with HOP-18; 18.1 µM (inactive) with M19-MEL; 265 µM (inactive) in the assay on SNB-78; 178 µM (inactive) in the assay with DLD-1. Also, the GI50 with DMS-114 is 38.5 µM (inactive).

As for `Cc1cc(Cl)ccc1NC(=O)C(=O)Cc1nc2ccc(C(=O)c3ccccc3)cc2nc1O`, the GI50 is > 100 µM (inactive) in the assay with XF498; 49.2 µM (inactive) in the assay on DMS-273; > 100 µM (inactive) in the assay with HOP-18; > 100 µM (inactive) in the assay with M19-MEL; > 100 µM (inactive) with DLD-1; 48.6 µM (inactive) in the assay on LXFL 529. The GI50 with DMS-114 was 33.4 µM (inactive).

For `CN(C)CCC(/C=C/c1ccccc1)=N\Nc1c(F)c(F)c(F)c(F)c1F`, the GI50 is 36.8 µM (inactive) with DMS-273; 44.1 µM (inactive) with HOP-18; 39.4 µM (inactive) in the assay with M19-MEL; 50.9 µM (inactive) in the assay on SNB-78; > 100 µM (inactive) in the assay with DLD-1; 77.8 µM (inactive) in the assay on LXFL 529. In addition, in the assay on DMS-114, the GI50 is 21.7 µM (inactive).

Consider `O=CC1CCCc2ccccc21` (centres undefined), for which the GI50 with XF498 was > 100 µM (inactive); in the assay on DMS-273, > 100 µM (inactive); in the assay with HOP-18, > 100 µM (inactive); in the assay on M19-MEL, > 100 µM (inactive); with SNB-78, > 100 µM (inactive); with DLD-1 it was > 43.1 µM (inactive). The GI50 with LXFL 529 is > 100 µM (inactive); with DMS-114, > 47.3 µM (inactive).

With `CCCCCC(=O)OC[n+]1ccc2c(C)c3[nH]c4ccc(OC)cc4c3c(C)c2c1`, the GI50 in the assay on RXF 631 is 0.429 µM (active); with DMS-273, 0.0341 µM (active); with SNB-78, 0.449 µM (active); with DLD-1, 0.137 µM (active); in the assay with LXFL 529, 0.366 µM (active); in the assay on DMS-114, 0.628 µM (active).

The record behind these values is ChEMBL document CHEMBL1201862, “PubChem BioAssay data set” (2004).
